The values below come from patent publication US10981894B2, “Melanocortin subtype-2 receptor (MC2R) antagonists and uses thereof” (Crinetics Pharmaceuticals, Inc., priority 2018, dated 2021).

A value given as a limit tells only on which side of the number the result lay.

This test concerns the target hMC2 receptor (Homo sapiens, UniProt Q01718). Put plainly: hMC2 membrane binding assay ([125I]ACTH (1-39) Tyr23, SPA). The arrangement: scale not given here. The following applies: crude hMC2R membranes from CRE-bla-CHO-K1 cells expressing hMC2 receptor and hMRAP; [125I]ACTH (1-39) Tyr23 0.2 nM; 1.5 hours at room temperature; read-out: MC2R binding potency. In outline:
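CRE-bla-CHO-K1 membranes co-expressing hMC2 receptor and hMRAP, preincubated with WGA PVT SPA beads in pH 7.4 HEPES/MgCl2/CaCl2/0.2% BSA buffer. Compounds (typically 0–10,000 nM final) compete with 0.2 nM [125I]ACTH(1-39) Tyr23 for 1.5 h at room temperature. SPA counts give Ki by non-linear regression.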

Sequence of hMC2 receptor (Q01718 whole entry): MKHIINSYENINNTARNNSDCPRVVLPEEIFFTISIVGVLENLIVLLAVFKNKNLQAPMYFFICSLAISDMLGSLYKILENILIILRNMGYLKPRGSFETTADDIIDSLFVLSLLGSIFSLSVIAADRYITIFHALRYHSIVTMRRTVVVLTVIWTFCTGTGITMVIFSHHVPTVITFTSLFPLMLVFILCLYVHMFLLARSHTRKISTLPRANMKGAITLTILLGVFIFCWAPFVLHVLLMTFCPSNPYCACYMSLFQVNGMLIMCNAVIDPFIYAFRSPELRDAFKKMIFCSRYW
Sequence of hMC2 receptor (Q8TCY5 whole entry partner): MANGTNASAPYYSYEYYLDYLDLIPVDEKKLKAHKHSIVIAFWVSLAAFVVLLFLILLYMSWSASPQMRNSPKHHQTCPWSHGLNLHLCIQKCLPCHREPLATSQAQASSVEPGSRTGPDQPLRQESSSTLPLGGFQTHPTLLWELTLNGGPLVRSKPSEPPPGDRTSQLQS

`CC[C@@H]1CN(C(=O)c2ccc(C(F)(F)F)cc2Cl)CCN1c1ccc(-c2ccccc2C#N)cc1C(=O)NCCN` [Compound 1-7, N-(2-aminoethyl)-4-[(2R)-4-[2-chloro-4-(trifluoromethyl)benzoyl]-2-ethylpiperazin-1-yl]-2′-cyano-[1,1′-biphenyl]-3-carboxamide]: the Ki was 0.01 to 0.1 µM.
On to `CCOc1ncccc1-c1ccc(N2CCN(C(=O)c3ccc(Cl)cc3C(F)(F)F)C[C@H]2CC)c(C(=O)NCCNC)c1F` [Compound 1-95, 6-[(2R)-4-[4-chloro-2-(trifluoromethyl)benzoyl]-2-ethylpiperazin-1-yl]-3-(2-ethoxypyridin-3-yl)-2-fluoro-N-[2-(methylamino)ethyl]benzamide], for which the Ki is less than 0.01 µM.
The figure for `CCOc1ncccc1-c1ccc(N2CCN(C(=O)c3ccc(Cl)cc3C(F)F)C[C@H]2CC)c(C(=O)NCCN(C)C)c1F` [Compound 1-184, 6-[(2R)-4-[4-chloro-2-(difluoromethyl)benzoyl]-2-ethylpiperazin-1-yl]-N-[2-(dimethylamino)ethyl]-3-(2-ethoxypyridin-3-yl)-2-fluorobenzamide] is less than 0.01 µM; for `CCOc1ncccc1-c1ccc(N2CCN(C(=O)n3ccc4cccc(C(F)(F)F)c43)C[C@H]2CC)c(C(=O)N[C@@H]2CCN(C)C2)n1` [Compound 1-436, 2′-ethoxy-5-[(2R)-2-ethyl-4-[7-(trifluoromethyl)-1H-indole-1l-carbonyl]piperazin-1-yl]-N-[(3R)-1-methylpyrrolidin-3-yl]-[2,3′-bipyridine]-6-carboxamide] it is less than 0.01 µM; for `CCOc1ccccc1-c1ccc(N2CCN(C(=O)c3ccc(Cl)cc3C(F)(F)F)C[C@H]2CC)c(C(=O)NC2CNC2)n1` [Compound 1-220, N-(azetidin-3-yl)-3-[(2R)-4-[4-chloro-2-(trifluoromethyl)benzoyl]-2-ethylpiperazin-1-yl]-6-(2-ethoxyphenyl)pyridine-2-carboxamide] it is less than 0.01 µM.
As for `CCOc1ncccc1-c1ccc(N2CCN(C(=O)c3ccc(Cl)cc3C(F)(F)F)C[C@H]2CC)c(C(=O)NC[C@@H]2CCN2)c1F` [Compound 1-112, N-{[(2S)-azetidin-2-yl]methyl}-6-[(2R)-4-[4-chloro-2-(trifluoromethyl)benzoyl]-2-ethylpiperazin-1-yl]-3-(2-ethoxypyridin-3-yl)-2-fluorobenzamide], the Ki was less than 0.01 µM.
Under `CC[C@@H]1CN(C(=O)c2ccc(Cl)cc2C(F)(F)F)CCN1c1ccc(-c2ccccc2OC)cc1CN` [Compound 2-3, 1-{4-[(2R)-4-[4-chloro-2-(trifluoromethyl)benzoyl]-2-ethylpiperazin-1-yl]-2′-methoxy-[1,1′-biphenyl]-3-yl}methanamine] stands 0.01 to 0.1 µM; under `CCOc1ncccc1-c1ccc(N2CCN(C(=O)C3(C(F)(F)F)CCCC3)C[C@H]2CC)c(C(=O)NC[C@@H]2CCN2)n1` [Compound 1-329, N-{[(2S)-azetidin-2-yl]methyl}-2′-ethoxy-5-[(2R)-2-ethyl-4-[1-(trifluoromethyl)cyclopentanecarbonyl]piperazin-1-yl]-[2,3′-bipyridine]-6-carboxamide], less than 0.01 µM.
Under `CCOc1ncccc1-c1ccc(N2CCN(C(=O)C3(C(F)(F)F)CCC3)C[C@H]2CC)c(C(=O)N[C@@H]2CCNC2)n1` [Compound 1-280, 2′-ethoxy-5-[(2R)-2-ethyl-4-[1-(trifluoromethyl)cyclobutanecarbonyl]piperazin-1-yl]-N-[(3R)-pyrrolidin-3-yl]-[2,3′-bipyridine]-6-carboxamide] stands less than 0.01 µM; under `CCOc1ncccc1-c1ccc(N2CCN(C(=O)c3ccc(Cl)cc3C(F)(F)F)C[C@H]2CC)c(C(=O)NCCc2ncc[nH]2)c1` [Compound 1-93, 2-[(2R)-4-[4-chloro-2-(trifluoromethyl)benzoyl]-2-ethylpiperazin-1-yl]-5-(2-ethoxypyridin-3-yl)-N-[2-(1H-imidazol-2-yl)ethyl]benzamide], less than 0.01 µM; under `CCOc1ccccc1-c1ccc(N2CCN(C(=O)c3ccc(F)cc3-c3ccc(CN)cc3)C[C@H]2CC)c(C(=O)NCCN)c1` [Compound 1-17, N-(2-aminoethyl)-4-[(2R)-4-[4′-(aminomethyl)-5-fluoro-[1,1′-biphenyl]-2-carbonyl]-2-ethylpiperazin-1-yl]-2′-ethoxy-[1,1′-biphenyl]-3-carboxamide], less than 0.01 µM.
Consider `CCOc1ncccc1-c1ccc(N2CCN(C(=O)n3ccc4cc(F)cc(C#N)c43)C[C@H]2CC)c(C(=O)N[C@@H]2CCN(C)C2)n1` [Compound 1-438, 5-[(2R)-4-(7-cyano-5-fluoro-1H-indole-1-carbonyl)-2-ethylpiperazin-1-yl]-2′-ethoxy-N-[(3R)-1-methylpyrrolidin-3-yl]-[2,3′-bipyridine]-6-carboxamide], for which the Ki is less than 0.01 µM.
Under `CCOc1ncccc1-c1ccc(N2CCN(C(=O)C34CCC(C(F)(F)F)(CC3)C4)C[C@H]2CC)c(C(=O)NCC2CN(C)C2)n1` [Compound 1-395, 2′-ethoxy-5-[(2R)-2-ethyl-4-[4-(trifluoromethyl)bicyclo[2.2.1]heptane-1-carbonyl]piperazin-1-yl]-N-[(1-methylazetidin-3-yl)methyl]-[2,3′-bipyridine]-6-carboxamide] stands less than 0.01 µM.
Turning to `CCOc1ncccc1-c1ccc(N2CCN(C(=O)N3CCC[C@H]3C(F)(F)F)C[C@H]2CC)c(C(=O)N[C@H]2CCN(C)C2)n1` [Compound 1-373, 2′-ethoxy-5-[(2R)-2-ethyl-4-[(2S)-2-(trifluoromethyl)pyrrolidine-1-carbonyl]piperazin-1-yl]-N-[(3S)-1-methylpyrrolidin-3-yl]-[2,3′-bipyridine]-6-carboxamide], the Ki is less than 0.01 µM.
For the molecule `CCOc1ncccc1-c1ccc(N2CCN(C(=O)c3ccc(Cl)cc3C(F)(F)F)C[C@H]2CC)c(C(=O)NC2CNC2)c1F` [Compound 1-198, N-(azetidin-3-yl)-6-[(2R)-4-[4-chloro-2-(trifluoromethyl)benzoyl]-2-ethylpiperazin-1-yl]-3-(2-ethoxypyridin-3-yl)-2-fluorobenzamide], the Ki was less than 0.01 µM.
Under `CCOc1ncccc1-c1ccc(N2CCN(C(=O)c3ccc(C(F)(F)F)cc3N3CCC(CN)C3)C[C@H]2CC)c(C(=O)NCCN)c1` (stereo partly drawn) [Compound 1-50, N-(2-aminoethyl)-2-[(2R)-4-{2-[3-(aminomethyl)pyrrolidin-1-yl]-4-(trifluoromethyl)benzoyl}-2-ethylpiperazin-1-yl]-5-(2-ethoxypyridin-3-yl)benzamide] stands less than 0.01 µM; under `CCOc1ccccc1-c1ccc(N2CCN(C(=O)N3CCC[C@@H]3C(C)(C)C)C[C@H]2CC)c(C(=O)N[C@@H]2CCNC2)n1` [Compound 1-356, 3-[(2R)-4-[(2R)-2-tert-butylpyrrolidine-1-carbonyl]-2-ethylpiperazin-1-yl]-6-(2-ethoxyphenyl)-N-[(3R)-pyrrolidin-3-yl]pyridine-2-carboxamide], less than 0.01 µM; under `CCOc1ncccc1-c1ccc(N2CCN(C(=O)N3CCCC[C@H]3C(F)(F)F)C[C@H]2CC)c(C(=O)N[C@H]2CCN(C)C2)n1` [Compound 1-434, 2′-ethoxy-5-[(2R)-2-ethyl-4-[(2S)-2-(trifluoromethyl)piperidine-1-carbonyl]piperazin-1-yl]-N-[(3S)-1-methylpyrrolidin-3-yl]-[2,3′-bipyridine]-6-carboxamide], less than 0.01 µM.
